Measured values taken from patent publication US7217530B2 (priority 2002, dated 2007).

Key:
[1] = target: recombinant PrP protein (recPrP) (Homo sapiens, UniProt P04156); type: physicochemical

## p-sulfonato-3,7-(2-carboxy-methyloxy)-calix-[6]-arene [AML1]
PrP^sc
  dilution up to which detection of PrP^sc in the sample is possible: 1/32
PrP^sc; immunoblotting, FIG. 1, free AML1
  detection of the prion increased over detection of the same protein in the absence of AML1: at least four
[1]; SPM images, FIGS. 3 and 4
  structures observed for recPrP films in the presence of AML: modified sequentially
[1]; dried film on mica, SPM
  Average height: 217.7
  Maximum height value: 448.9
  RMS (root mean square rugosity): 58.7 nm
  Ra (average rugosity): 48 nm
